Reference: patent US10940155B2, “Oral quetiapine suspension formulations with extended shelf life and enhanced bioavailability” (TLC THERAPEUTICS, LLC, priority 2017, dated 2021)
Where a name gives a salt, the structure may show the parent alone. Read-outs that look alike come from different tables or passages of the source.

Tests used:
[1] = due to extensive first-pass metabolism; cited from earlier work

solubility (pH 2): 1.499 g/5 ml | solubility (pH 3): 952.1 mg/5 ml
SMILES: OCCOCCN1CCN(C2=Nc3ccccc3Sc3ccccc32)CC1 [quetiapine fumarate, 2-[2-(4-dibenzo [b,f][1,4]thiazepin-11-yl-1-piperazinyl)ethoxy]-ethanol fumarate (2:1)]
oral bioavailability [1]: poor
